Experimental data published in ChEMBL document CHEMBL1201862, “PubChem BioAssay data set” (2004).
Each block holds one molecule with its values, some of them ahead of it. Activity calls are given as the source filed them.

Tests used:
[1] = cells
[2] = HEp-2 cell cytotoxicity, dose response, cytotoxicity control for RSV inhibitor project, HTS (AID 2410); assay type: functional; settings: human respiratory syncytial virus
[3] = biological target: T1, Mannose-6-phosphate isomerase (Homo sapiens, UniProt P34949); test: inhibitors of human PMI, primary screen, biochemical, fluorescence intensity, coupled assay (AID 1209)
T1 sequence (P34949 whole entry): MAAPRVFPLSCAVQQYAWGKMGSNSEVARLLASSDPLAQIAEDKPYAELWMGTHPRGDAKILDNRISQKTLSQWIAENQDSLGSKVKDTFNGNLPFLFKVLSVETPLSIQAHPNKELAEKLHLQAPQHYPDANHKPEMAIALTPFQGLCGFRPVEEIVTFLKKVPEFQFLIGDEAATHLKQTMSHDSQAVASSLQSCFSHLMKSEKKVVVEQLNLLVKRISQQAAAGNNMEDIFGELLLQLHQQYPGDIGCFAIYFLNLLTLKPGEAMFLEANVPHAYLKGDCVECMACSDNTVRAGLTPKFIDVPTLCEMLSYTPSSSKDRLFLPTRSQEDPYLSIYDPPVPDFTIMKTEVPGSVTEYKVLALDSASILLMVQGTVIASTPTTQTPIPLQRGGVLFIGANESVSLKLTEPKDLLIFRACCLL

[4] = off-target signal loss in HeLa-CEM21 co-culture – HeLa F-luc CTL cells, cherry-picked, counter-screen for HIV-1 Env fusion inhibitor project, dose response (AID 652040); assay type: functional, cell-based;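 note: potency for signal decrease marking cytotoxic or nonspecific inhibition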
[5] = ZM109 Env clade C HIV-1 fusion inhibitors, dose response, HeLa effector, CEM target cells, luciferase, cherry-pick (AID 652058); assay type: functional, cell-based
[6] = inhibitors of HIV Env-driven cell fusion, dose response, cherry-pick (AID 652057); assay type: functional, cell-based
[7] = inhibitors of clade B AD8 Env fusion, dose response, cell-based, cherry-pick (AID 652062); assay type: functional;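 note: luciferase signal from cell-cell fusion driven by HIV-1 clade B AD8 Env; potency is for inhibitors of fusion seen as a drop in luminescence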
[8] = biological target: Peroxisome proliferator-activated receptor gamma/Nuclear receptor coactivator 1 (Homo sapiens, UniProt P37231); assay type: functional;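 note: agonist potency as compounds enhance coactivator SRC-1 recruitment to PPARgamma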
[9] = biological target: Peroxisome proliferator-activated receptor gamma/Nuclear receptor coactivator 2 (Homo sapiens, UniProt P37231); assay type: functional;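 note: agonist potency for raising coactivator recruitment to the receptor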
[10] = biological target: Peroxisome proliferator-activated receptor gamma/Nuclear receptor coactivator 3 (Homo sapiens, UniProt P37231); assay type: functional;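 note: agonist potency for raising coactivator recruitment to the receptor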
Sequence of Peroxisome proliferator-activated receptor gamma/Nuclear receptor coactivator 3 (P37231 whole entry): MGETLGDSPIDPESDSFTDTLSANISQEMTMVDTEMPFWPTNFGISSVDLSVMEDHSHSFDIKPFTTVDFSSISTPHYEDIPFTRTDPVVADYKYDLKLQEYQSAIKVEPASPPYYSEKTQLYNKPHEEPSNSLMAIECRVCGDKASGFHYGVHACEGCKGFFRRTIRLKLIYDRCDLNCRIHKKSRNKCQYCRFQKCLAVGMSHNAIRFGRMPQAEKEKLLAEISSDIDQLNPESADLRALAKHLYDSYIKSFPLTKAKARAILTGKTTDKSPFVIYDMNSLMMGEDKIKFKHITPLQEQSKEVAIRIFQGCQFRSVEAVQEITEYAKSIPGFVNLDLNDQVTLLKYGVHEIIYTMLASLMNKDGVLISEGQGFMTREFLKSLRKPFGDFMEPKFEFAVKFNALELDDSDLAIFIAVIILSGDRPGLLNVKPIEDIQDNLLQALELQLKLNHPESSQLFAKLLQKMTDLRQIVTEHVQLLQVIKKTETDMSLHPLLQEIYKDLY
Sequence of Peroxisome proliferator-activated receptor gamma/Nuclear receptor coactivator 3 (Q9Y6Q9 whole entry, further chain): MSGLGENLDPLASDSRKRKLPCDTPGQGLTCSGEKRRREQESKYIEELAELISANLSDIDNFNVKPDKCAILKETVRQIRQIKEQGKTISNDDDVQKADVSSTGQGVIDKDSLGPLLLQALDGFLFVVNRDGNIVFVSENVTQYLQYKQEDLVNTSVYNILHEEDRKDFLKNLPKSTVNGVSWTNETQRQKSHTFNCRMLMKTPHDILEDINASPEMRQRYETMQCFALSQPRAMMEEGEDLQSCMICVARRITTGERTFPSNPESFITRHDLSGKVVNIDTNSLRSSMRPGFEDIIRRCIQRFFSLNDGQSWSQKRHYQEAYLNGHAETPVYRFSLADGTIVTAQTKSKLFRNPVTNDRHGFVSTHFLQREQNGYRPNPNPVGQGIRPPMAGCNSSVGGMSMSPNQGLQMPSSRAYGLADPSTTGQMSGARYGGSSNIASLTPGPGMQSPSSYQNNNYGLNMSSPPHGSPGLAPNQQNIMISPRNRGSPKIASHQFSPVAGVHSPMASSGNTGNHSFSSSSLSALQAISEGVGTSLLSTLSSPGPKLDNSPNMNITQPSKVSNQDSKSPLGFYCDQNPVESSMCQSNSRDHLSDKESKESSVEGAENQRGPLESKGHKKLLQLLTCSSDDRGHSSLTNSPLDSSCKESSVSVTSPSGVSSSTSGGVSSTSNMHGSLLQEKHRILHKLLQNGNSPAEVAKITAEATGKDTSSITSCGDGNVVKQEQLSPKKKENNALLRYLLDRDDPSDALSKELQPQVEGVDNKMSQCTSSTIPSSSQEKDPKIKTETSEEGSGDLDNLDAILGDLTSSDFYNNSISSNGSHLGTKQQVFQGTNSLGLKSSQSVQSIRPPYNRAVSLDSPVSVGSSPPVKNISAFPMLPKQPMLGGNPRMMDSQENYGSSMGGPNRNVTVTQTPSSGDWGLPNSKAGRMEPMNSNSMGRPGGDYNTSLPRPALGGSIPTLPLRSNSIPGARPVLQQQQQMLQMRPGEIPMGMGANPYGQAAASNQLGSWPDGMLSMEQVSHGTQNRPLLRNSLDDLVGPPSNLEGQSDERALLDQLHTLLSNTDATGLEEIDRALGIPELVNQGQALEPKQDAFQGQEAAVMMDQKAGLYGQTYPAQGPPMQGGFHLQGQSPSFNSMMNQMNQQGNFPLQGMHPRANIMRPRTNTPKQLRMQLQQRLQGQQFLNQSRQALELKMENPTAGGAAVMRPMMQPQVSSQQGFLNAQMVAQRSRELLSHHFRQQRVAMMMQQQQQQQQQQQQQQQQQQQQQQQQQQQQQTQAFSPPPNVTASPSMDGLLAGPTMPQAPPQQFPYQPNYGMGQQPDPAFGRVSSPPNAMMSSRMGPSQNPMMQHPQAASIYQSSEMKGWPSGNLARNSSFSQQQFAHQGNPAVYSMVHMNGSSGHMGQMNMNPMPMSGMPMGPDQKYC

[11] = biological target: Ion channel NompC (Danio rerio, UniProt Q7T1G6); test: Fluorescence counterscreen assay for TRPML3 agonists: dose response cell-based high-throughput screening assay to identify agonists of the transient receptor potential channel N1 (TRPN1). [Related pubchem assays: 1526, 1424, 1448 ]; assay type: functional
Sequence of Ion channel NompC (Q7T1G6 whole entry): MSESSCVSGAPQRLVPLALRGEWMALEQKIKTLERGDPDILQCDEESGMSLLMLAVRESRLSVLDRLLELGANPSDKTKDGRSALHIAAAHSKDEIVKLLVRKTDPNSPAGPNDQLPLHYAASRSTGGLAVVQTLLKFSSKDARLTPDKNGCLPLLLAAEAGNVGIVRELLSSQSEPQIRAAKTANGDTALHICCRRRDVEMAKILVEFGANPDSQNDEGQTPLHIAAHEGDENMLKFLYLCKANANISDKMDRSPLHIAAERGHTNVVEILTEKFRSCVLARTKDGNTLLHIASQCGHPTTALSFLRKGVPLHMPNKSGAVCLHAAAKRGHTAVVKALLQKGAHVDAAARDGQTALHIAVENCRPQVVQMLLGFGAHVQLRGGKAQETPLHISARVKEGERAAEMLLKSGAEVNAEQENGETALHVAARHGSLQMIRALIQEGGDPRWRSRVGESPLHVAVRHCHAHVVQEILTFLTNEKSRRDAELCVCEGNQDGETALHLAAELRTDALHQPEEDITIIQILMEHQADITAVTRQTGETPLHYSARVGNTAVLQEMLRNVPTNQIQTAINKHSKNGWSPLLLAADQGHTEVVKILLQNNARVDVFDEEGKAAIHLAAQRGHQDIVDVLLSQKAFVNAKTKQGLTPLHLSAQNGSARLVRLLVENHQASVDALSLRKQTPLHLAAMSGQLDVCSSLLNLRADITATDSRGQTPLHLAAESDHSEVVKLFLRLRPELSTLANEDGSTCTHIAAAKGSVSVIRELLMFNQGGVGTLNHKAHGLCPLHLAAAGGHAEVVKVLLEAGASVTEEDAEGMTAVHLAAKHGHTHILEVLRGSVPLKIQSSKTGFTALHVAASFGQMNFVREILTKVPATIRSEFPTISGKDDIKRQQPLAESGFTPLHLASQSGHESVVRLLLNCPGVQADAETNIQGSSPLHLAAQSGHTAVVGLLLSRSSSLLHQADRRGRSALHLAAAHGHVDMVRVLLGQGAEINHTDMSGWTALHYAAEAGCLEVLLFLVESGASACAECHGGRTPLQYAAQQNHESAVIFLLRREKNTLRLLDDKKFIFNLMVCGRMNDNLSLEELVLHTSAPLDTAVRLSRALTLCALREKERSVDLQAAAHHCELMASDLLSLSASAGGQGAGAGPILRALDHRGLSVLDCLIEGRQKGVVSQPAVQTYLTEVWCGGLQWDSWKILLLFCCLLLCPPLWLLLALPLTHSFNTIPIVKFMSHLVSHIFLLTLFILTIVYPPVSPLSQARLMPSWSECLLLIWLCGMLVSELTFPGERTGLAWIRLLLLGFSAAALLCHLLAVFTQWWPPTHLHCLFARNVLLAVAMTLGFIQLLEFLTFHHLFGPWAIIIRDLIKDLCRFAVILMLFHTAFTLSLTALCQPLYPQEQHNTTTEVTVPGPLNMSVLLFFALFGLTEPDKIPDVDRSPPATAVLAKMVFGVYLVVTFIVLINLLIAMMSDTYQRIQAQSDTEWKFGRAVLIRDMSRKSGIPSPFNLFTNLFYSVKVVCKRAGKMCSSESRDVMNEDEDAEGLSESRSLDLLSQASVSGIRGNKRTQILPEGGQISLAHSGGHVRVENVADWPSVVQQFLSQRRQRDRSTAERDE

[12] = biological target: Mucolipin-3 (Homo sapiens, UniProt Q8TDD5); test: Dose response cell-based high-throughput screening assay for agonists of the transient receptor potential channel ML3 (TRPML3). [Related pubchem assays: 1526, 1424, 1448 ]; assay type: functional
Sequence of Mucolipin-3 (Q8TDD5 whole entry): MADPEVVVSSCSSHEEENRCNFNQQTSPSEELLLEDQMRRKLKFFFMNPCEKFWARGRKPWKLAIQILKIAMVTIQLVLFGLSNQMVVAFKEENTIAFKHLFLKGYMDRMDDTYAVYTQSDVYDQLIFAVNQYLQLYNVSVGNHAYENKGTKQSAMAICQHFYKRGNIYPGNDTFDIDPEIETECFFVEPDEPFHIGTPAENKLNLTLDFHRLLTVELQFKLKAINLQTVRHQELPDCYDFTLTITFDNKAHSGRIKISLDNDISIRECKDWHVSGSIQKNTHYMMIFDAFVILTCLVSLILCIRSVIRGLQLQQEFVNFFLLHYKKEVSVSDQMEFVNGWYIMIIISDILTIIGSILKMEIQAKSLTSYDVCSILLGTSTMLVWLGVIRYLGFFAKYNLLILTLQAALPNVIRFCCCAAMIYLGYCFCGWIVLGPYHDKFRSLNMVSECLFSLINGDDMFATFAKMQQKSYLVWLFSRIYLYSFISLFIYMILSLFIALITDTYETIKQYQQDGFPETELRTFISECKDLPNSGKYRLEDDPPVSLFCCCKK

IC50 [3]: > 50 µM (not active)
Structure (SMILES): CCOc1ccc2c(c1)C(C)=CC(C)(C)N2C(=O)Nc1ccccc1

EC50 [8]: > 79.4 µM (not active)
EC50 [9]: > 79.4 µM (not active)
EC50 [10]: > 79.4 µM (not active)
Structure (SMILES): COc1cnn(-c2ccccc2)c(=O)c1N(C)C

EC50 [11]: > 29.9 µM (not active)
EC50 [12]: 2.84 µM (active)
Structure (SMILES): COc1cc(C)ccc1S(=O)(=O)N1CCCCCC1

Further lines, the molecule ahead of its results:

Structure (SMILES): CCN(CC(=O)Nc1cc(Cl)ccc1C)C(=O)CSCc1ccc(C)cc1
IC50 [1]: 22.8 µM (active)
CC50 [2]: 24.5 µM (active)

Structure (SMILES): O=C(NCc1ccco1)c1ccc(Cn2c(=O)c3ccccc3n(Cc3ccc(Cl)cc3)c2=O)cc1
AC50 [4]: 0.421 µM (active)
IC50 [1]: 0.58 µM (active)
CC50 [2]: > 50 µM (active)
AC50 [5]: 1.48 µM (active)
AC50 [6]: 0.669 µM (active)
AC50 [7]: 5.95 µM (active)
